Test results: patent US9364474B2, “Method for treatment of neurologic dysfunction” (MedDEV, Inc., priority 2004, dated 2016)
Entries after “also recorded” stand apart in the source; their conditions may differ. Read-outs that look alike come from different tables or passages of the source.

Columns and labels:
[1] = test system: patient diagnosed with chronic schizophrenia; assay: Case example: patient with chronic schizophrenia, transdermal reserpine spray (with prior medication history); type: in vivo, human
[2] = test system: resting and evoked activity of the brain of patient with Autism; assay: Quantitative Electroencephalogram (qEEG, Neuroguide 2.5) in ASD patient; type: in vivo, human; settings: ASD Example One
Experimental: In a paper by Thatcher et al, an Autistic signature was reported. […] Analysis was conducted using Neuroguide 2.5, a widely accepted and statistically valid instrument (Thatcher et al, 2003).

[3] = in the human body; cited from earlier work
schizophrenic patients = settings: Shepherd and Watt 1956; 0.75 mg per day; cited from earlier work
aldehyde dehydrogenase = settings: literature; cited from earlier work
Autistic children = settings: cited from earlier work
[4] = test system: patient suffering from depression
Experimental: The treatment composition is suitably applied in a single daily dose, e.g., 0.01 mg of the MAO-A agonist in 0.05 ml of transdermal cream applied once every morning. Caffeine may also be included in the composition to compensate for the anti-hypertensive effect of the preferred reserpine; the caffeine may suitably be included in an amount from about 50-100 mg/dose.
Treatment was in the form of 0.01 mg of reserpine per 0.05 ml of transdermal cream, applied transdermally once a day in the morning.
The treatment consisted of 0.01 mg of reserpine per 0.05 ml of cream, applied transdermally by rubbing the cream into the skin once a day in the morning.
The treatment consisted of 0.01 mg of the reserpine per 0.05 ml of cream, applied transdermally by rubbing the cream into the skin once a day in the morning.
The patient discontinued the use of nortriptyline and the same day started the treatment of the present invention, using 0.01 mg of the reserpine per 0.05 ml cream, applied transdermally by rubbing the cream into the skin once a day in the morning.
The patient then started the treatment of the present invention, using 0.01 mg of the MAO-A activity stimulator (reserpine) per 0.05 ml cream, applied transdermally by rubbing the cream into the skin once a day in the morning.

MAO-A = settings: Youdim & Sandler (1968); cited from earlier work
patient with Autism = assay: Case examples: patients with Autism (ASD), transdermal reserpine (with prior medication history); type: in vivo, human; settings: for outcome of prior reserpine treatment: reserpine 0.01 mg/day
Experimental: The treatment composition is suitably applied in a single daily dose, e.g., 0.01 mg of the MAO-A agonist in 0.05 ml of spray solution applied once every morning.
Prior to administration of the present invention (transdermal reserpine), the patient's parents were provided with an informed consent documenting the potential risks, benefits and alternatives to this treatment. The patient was started on a dose of Reserpine at a 4× dilution resulting in a total dose of 0.01 mg. […] They were also given approximately 1400 mg of Calcium every morning.

[5] = Schizophrenia Example One, first day
[6] = Schizophrenia Example One, fourth day
[7] = Schizophrenia Example One, next 2 days
[8] = ASD Example Three, 0.01 mg per day
[9] = ASD Example Three, continued 0.01 mg per day
[10] = ASD Example Two, 0.01 mg per day

In the case of `COC(=O)[C@H]1[C@H]2C[C@@H]3c4[nH]c5cc(OC)ccc5c4CCN3C[C@H]2C[C@@H](OC(=O)c2cc(OC)c(OC)c(OC)c2)[C@@H]1OC` [reserpine], the “side effects after first application” value ([1]; Schizophrenia Example One: person, transdermal reserpine via metered sprayer on forearm, Abilify stopped the day before) is reported as “feeling severely depressed; also recorded: rapid heart rate, and anxiety”, the “time to onset of feeling severely depressed after rubbing the spray into skin” value ([1]; Schizophrenia Example One, first application) is reported as ≤ 30 s and the “effect on symptoms of schizophrenia (report)” value [1, 5] is reported as “more focused, they had clearer thoughts”. For the same molecule, the “time to resolution of side effect symptoms after applying the spray” value [1, 5] was 2 to 3 h, the side effects [1, 6] was “none of these side effect symptoms occurred” and the task completion [1, 6] was “completed a list of chores that they gave them without supervision”. The “severity of returning side effects” value [1, 7] was “slightly less severe”, the “time to resolution of side effect symptoms after applying the dose” value [1, 7] was ≤ 2 h and the “behavior when required calcium was not taken” value ([1]; Schizophrenia Example One, sixth day, 2,000 mg calcium omitted) was “became very aggressive”. The “effect on blood calcium without additional calcium” value ([1]; without taking additional calcium daily) was “can cause hypocalcemia”, the “change in quantitative Electroencephalogram” value ([2]; after three weeks of treatment (FIG. 5)) was “significant change in their quantitative Electroencephalogram” and the “High Beta activity in qEEG” value ([2]; increased after starting HBOT, after starting transdermal reserpine) was “appears to subside”. The therapeutic half-life [3] was 33 h, the “effect of low dose in schizophrenia” value (schizophrenic patients) was “resembling more an inert substance than the drug” and the “effect on aldehyde dehydrogenase” value (aldehyde dehydrogenase) was “inhibit aldehyde dehydrogenase”. The average optimum dose (Autistic children; Lehman et al 1957, oral) was 5 mg per day, the optimum dose (Autistic children; Lehman et al 1957, oral, improvements only within this range, per day) was 3 to 7 mg and the effectiveness in autism (Autistic children; Macready 2001, doses of 0.25-1.8 mg/day) was “may be effective in autism”. The “effect on symptoms of depression” value ([4]; Depression Example Five, 0.002 mg, other symptoms persisted) was “alleviation of their symptoms of feeling hopelessness and “doom and gloom””, the “effect on symptoms of depression” value ([4]; Depression Example Five, 0.004 mg, third day, fatigue and insomnia still experienced) was “improvement in their emotions” and the “effect on symptoms of depression” value ([4]; Depression Example Five, 0.006 mg per day) was “all of the patient's symptoms of depression were successfully alleviated”. For the same molecule, the “return of symptoms on long-term treatment” value ([4]; Depression Example Five, eight consecutive months, 0.006 mg per day transdermally) was “no return of the symptoms of depression”, the “time to resolution of fatigue and loss of energy after first dose” value ([4]; Depression Example Four: person, 0.01 mg of reserpine per 0.05 ml cream transdermally once a day, nortriptyline discontinued) was “one” and the “outcome after dose increase during stressful event” value ([4]; Depression Example Four, 0.02 mg for one week) was “insomnia and fatigue resolved”. The “return of symptoms on long-term treatment” value ([4]; Depression Example Four, 10 months of consecutive daily treatment, 0.01 mg) was “no return of the symptoms listed above”, the “outcome after return to the lower dose” value ([4]; Depression Example Four, returned to 0.01 mg dose) was “no return of any symptoms of depression” and the “time to significant improvement in state of mind after first application” value ([4]; Depression Example One: 250-pound person, 0.01 mg of reserpine per 0.05 ml of transdermal cream once a day) was “four”. The “weight lost during the treatment” value ([4]; Depression Example One, 0.01 mg transdermal once a day) was > 20 pounds, the “status of prior symptoms of depression on continued treatment” value ([4]; Depression Example One, 0.01 mg transdermal, consecutive 24-hour dosing regimen) was “remains free of all of the prior symptoms” and the “time from last dose to beginning return of symptoms” value ([4]; Depression Example One, dose forgotten for a day) was “about 32 hours”. For the same molecule, the “time to freedom from all symptoms after applying the missed dose” value ([4]; Depression Example One, dose missed for 72 hours) was “one”, the “marijuana use during the treatment” value ([4]; Depression Example Three) was “has not used any marijuana during the treatment” and the “time to resolution of pessimism and negative mood aspects after first dose” value ([4]; Depression Example Three: 220-pound person, depression and substance abuse, 0.01 mg of reserpine per 0.05 ml of cream transdermally once a day) was “two”. The “cravings for substances of abuse” value ([4]; Depression Example Three, after first dose 0.01 mg) was “no cravings for marijuana or alcohol”, the “outcome after dose decrease” value ([4]; Depression Example Three, dose decreased to 0.0075 mg of reserpine) was “symptoms resolved that same day” and the weight lost ([4]; Depression Example Three, first 60 days) was “five”. For the same molecule, the “weight loss after resuming the treatment” value ([4]; Depression Example Two) was 1-2 pound per week, the “time to increased energy after applying the dose” value ([4]; Depression Example Two: 175-pound person, 0.01 mg of reserpine per 0.05 ml of cream transdermally once a day) was “one” and the “time to resolution of all perceptible symptoms after first application (except slight problems with memory)” value ([4]; Depression Example Two, 0.01 mg transdermal) was ≤ 10 h. For the same molecule, the “return of symptoms during treatment” value ([4]; Depression Example Two, 30 consecutive days) was “no return of their symptoms”, the “time to resolution of symptoms after resuming the treatment” value ([4]; Depression Example Two, after 10 day interruption) was “one” and the total weight lost ([4]; Depression Example Two, first 50 days) was 15 pounds. For the same molecule, the “symptoms during interruption of treatment” value ([4]; Depression Example Two, treatment interrupted for 10 days) was “all of the symptoms returned”, the “time to improvement or resolution of symptoms after first application” value ([4]; each of the depression examples) was 1 to 4 h and the “course of headache after dose reduction” value ([4]; human, in vivo) was “resolved immediately”. The “effect of too high a dose” value ([4]; human, in vivo) was “undesirable increase in the symptoms of depression”, the negative side effects ([4]; human, in vivo) was “no significant negative side effects” and the “side effect at starting dose” value ([4]; human, in vivo) was “headache that did not resolve spontaneously the first day”. The “effect on MAO-A” value (MAO-A) was “activate MAO-A”, the “effect of starting dose” value (patient with Autism; ASD Example One: person, transdermal, total dose of 0.01 mg) was “some increased hyperactivity” and the motor hyperactivity (patient with Autism; ASD Example One, 0.005 mg) was “mild increase in motor hyperactivity”. The “temper outbursts during the course of treatment” value (patient with Autism; ASD Example One, 0.005 mg, no quetiapine administration needed) was “no temper outbursts”, the anxiety (patient with Autism; ASD Example One, after three weeks of treatment) was “markedly decreased amount of anxiety” and the “social interactions, language and attention” value (patient with Autism; ASD Example One, after three weeks, reduced dose 0.005 mg transdermal) was “significant improvements in their social interactions, language, and attention; also recorded: started using several meaningful sentences in succession”. The ““stimming” (banging of the plastic sticks)” value (patient with Autism; ASD Example Three: person, transdermal reserpine 0.01 mg per day, immediately) was “reduced to only infrequent occurrence”, the “speech after 2 months” value (patient with Autism; ASD Example Three, 0.01 mg) was “shouted out very clearly the words, “I'm hungry”” and the “behavior by the second day of administration” value (patient with Autism; [8]) was “left their clothes on without supervision”. For the same molecule, the “social response and language comprehension (parents' report)” value (patient with Autism; [8]) was “will now look at them and smile when spoken to and appears to understand language better”, the “speech within the first 30 days” value (patient with Autism; [8]) was “started making some new speech sounds” and the continued course (patient with Autism; [9]) was “subtle slow improvements in social behavior, speech, attention span, and awareness and interaction with their environment”. For the same molecule, the side effects (patient with Autism; [9]) was “without any side effects”, the attention span (patient with Autism; ASD Example Two: person, transdermal reserpine 0.01 mg per day, immediately) was “increase attention span” and the affectionate behavior (patient with Autism; [10]) was “become more affectionate toward their parents and grandparents”. For the same molecule, the speech (patient with Autism; [10]) was “all of their speech is clear and comprehensible”, the “time they could stay focused on a task” value (patient with Autism; [10]) was ≥ 30 min and the “effect of increased dose” value (patient with Autism; ASD Example Two, 0.015 mg per day, off gluten free diet) was “very hyperactive and aggressive”. For the same molecule, the “outcome after dose decreased back” value (patient with Autism; ASD Example Two, back to 0.01 mg per day, off gluten free diet) was “maintained their improvements in speech, social behavior, and attention span”, the “outcome of prior reserpine treatment” value (patient with Autism; Homeopathic Example One: person) was “Substantial improvements” and the “outcome of prior reserpine treatment” value (patient with Autism; Homeopathic Example Two: person) was “substantial improvement”. The urinary calcium excretion (patient with Autism; as a result of reserpine administration) was “increase in the amount of calcium excreted in the urine”.
